Data from publication PMC3914206.

Legend:
panel of 442 kinases [1] = target: T1, panel of 442 kinases (Homo sapiens, UniProt O95835); assay type: binding; set-up: KINOMEscan: ABL1(F317L)-phosphorylated / KINOMEscan: ABL1(H396P)-nonphosphorylated / KINOMEscan: ABL1(H396P)-phosphorylated / KINOMEscan: ABL1(M351T)-phosphorylated / KINOMEscan: ABL1(T315I)-phosphorylated / KINOMEscan: ABL1-nonphosphorylated / KINOMEscan: ABL1-phosphorylated / KINOMEscan: ACVR2A / KINOMEscan: ACVR2B / KINOMEscan: ADCK3 / KINOMEscan: ADCK4 / KINOMEscan: AKT1 / KINOMEscan: AKT3 / KINOMEscan: ALK / KINOMEscan: ARK5 / KINOMEscan: AURKA / KINOMEscan: AURKC / KINOMEscan: BIKE / KINOMEscan: BMPR1A / KINOMEscan: BMPR1B / KINOMEscan: BMX / KINOMEscan: BRK / KINOMEscan: BRSK1 / KINOMEscan: BRSK2 / KINOMEscan: CAMK1 / KINOMEscan: CAMK1D / KINOMEscan: CAMK1G / KINOMEscan: CAMK2A / KINOMEscan: CAMK2B / KINOMEscan: AAK1 / KINOMEscan: CAMK2D / KINOMEscan: CAMK2G / KINOMEscan: ABL1(F317I)-nonphosphorylated / KINOMEscan: ABL1(F317I)-phosphorylated / KINOMEscan: ABL1(F317L)-nonphosphorylated: unit: % Ctrl; details: Compound Concentration 10 µM
T1 construct: purchased KINOMEscan
T1 sequence (O95835 1-1130): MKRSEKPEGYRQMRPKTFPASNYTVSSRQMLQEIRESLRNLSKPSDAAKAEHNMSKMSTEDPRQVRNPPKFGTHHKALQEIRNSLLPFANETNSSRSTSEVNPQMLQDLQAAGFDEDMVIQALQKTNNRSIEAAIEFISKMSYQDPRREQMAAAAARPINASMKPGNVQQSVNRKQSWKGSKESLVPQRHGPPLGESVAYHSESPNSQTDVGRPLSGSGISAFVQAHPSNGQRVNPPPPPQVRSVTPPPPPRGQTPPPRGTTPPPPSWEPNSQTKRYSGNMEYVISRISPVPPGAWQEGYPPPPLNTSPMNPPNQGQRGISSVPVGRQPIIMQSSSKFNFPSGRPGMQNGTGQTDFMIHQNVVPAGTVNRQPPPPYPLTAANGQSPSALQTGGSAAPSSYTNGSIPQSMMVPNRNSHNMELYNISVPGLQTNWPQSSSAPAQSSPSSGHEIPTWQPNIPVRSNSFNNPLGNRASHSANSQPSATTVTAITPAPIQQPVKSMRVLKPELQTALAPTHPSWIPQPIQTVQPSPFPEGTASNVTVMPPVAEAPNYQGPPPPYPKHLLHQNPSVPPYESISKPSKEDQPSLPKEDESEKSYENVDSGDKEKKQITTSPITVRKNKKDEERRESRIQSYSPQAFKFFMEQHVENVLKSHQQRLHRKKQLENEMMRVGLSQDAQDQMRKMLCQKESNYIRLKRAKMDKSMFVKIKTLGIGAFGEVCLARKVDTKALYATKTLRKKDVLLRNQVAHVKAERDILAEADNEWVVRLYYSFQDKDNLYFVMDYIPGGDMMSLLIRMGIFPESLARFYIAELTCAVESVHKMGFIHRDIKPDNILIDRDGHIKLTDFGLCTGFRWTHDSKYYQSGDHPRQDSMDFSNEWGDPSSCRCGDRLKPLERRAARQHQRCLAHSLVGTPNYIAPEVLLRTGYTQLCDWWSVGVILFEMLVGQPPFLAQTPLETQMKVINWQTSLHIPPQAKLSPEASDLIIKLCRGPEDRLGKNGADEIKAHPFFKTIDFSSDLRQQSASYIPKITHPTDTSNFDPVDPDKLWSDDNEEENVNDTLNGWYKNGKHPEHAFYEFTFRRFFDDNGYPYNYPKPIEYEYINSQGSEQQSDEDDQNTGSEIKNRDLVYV
Text: (§1) We assessed the selectivity of members of this scaffold using the KINOMEscan methodology across a near comprehensive panel of 442 kinases [[18,27]].

panel of 442 kinases [2] = target: T2, panel of 442 kinases (Homo sapiens, UniProt P31749); assay type: binding; set-up: KINOMEscan: ABL1(F317L)-phosphorylated / KINOMEscan: ABL1(H396P)-nonphosphorylated / KINOMEscan: ABL1(H396P)-phosphorylated / KINOMEscan: ABL1(M351T)-phosphorylated / KINOMEscan: ABL1(T315I)-phosphorylated / KINOMEscan: ABL1-nonphosphorylated / KINOMEscan: ABL1-phosphorylated / KINOMEscan: ACVR2A / KINOMEscan: ACVR2B / KINOMEscan: ADCK3 / KINOMEscan: ADCK4 / KINOMEscan: AKT1 / KINOMEscan: AKT3 / KINOMEscan: ALK / KINOMEscan: ARK5 / KINOMEscan: AURKA / KINOMEscan: AURKC / KINOMEscan: BIKE / KINOMEscan: BMPR1A / KINOMEscan: BMPR1B / KINOMEscan: BMX / KINOMEscan: BRK / KINOMEscan: BRSK1 / KINOMEscan: BRSK2 / KINOMEscan: CAMK1 / KINOMEscan: CAMK1D / KINOMEscan: CAMK1G / KINOMEscan: CAMK2A / KINOMEscan: CAMK2B / KINOMEscan: AAK1 / KINOMEscan: CAMK2D / KINOMEscan: CAMK2G / KINOMEscan: ABL1(F317I)-nonphosphorylated / KINOMEscan: ABL1(F317I)-phosphorylated / KINOMEscan: ABL1(F317L)-nonphosphorylated: unit: % Ctrl; details: Compound Concentration 10 µM
T2 construct: purchased KINOMEscan
Text: as §1

T2 sequence (P31749 whole entry): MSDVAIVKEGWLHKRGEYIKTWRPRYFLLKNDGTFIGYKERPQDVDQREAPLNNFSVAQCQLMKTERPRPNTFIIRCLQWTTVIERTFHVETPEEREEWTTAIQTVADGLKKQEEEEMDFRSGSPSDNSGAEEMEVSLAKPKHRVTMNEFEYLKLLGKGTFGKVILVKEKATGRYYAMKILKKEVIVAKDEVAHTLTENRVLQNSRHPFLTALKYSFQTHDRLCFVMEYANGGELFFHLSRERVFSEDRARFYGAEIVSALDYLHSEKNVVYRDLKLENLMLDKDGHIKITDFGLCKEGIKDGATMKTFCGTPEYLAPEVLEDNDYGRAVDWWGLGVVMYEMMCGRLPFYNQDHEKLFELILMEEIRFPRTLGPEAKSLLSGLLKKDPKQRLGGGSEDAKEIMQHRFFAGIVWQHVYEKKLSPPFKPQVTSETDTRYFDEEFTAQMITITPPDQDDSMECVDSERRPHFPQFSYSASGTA

Row | SMILES | KINOMEscan: LATS1 (panel of 442 kinases [1]) | KINOMEscan: AKT1 (panel of 442 kinases [2])
1 | CCOc1cc(C(=O)N2CCC(N3CCN(C)CC3)CC2)ccc1Nc1ncc2c(n1)N(C1CCCC1)c1ccccc1C(=O)N2C [Compound 26] | 100 | 100
2 | COc1cc(C(=O)N2CCC(N3CCN(C)CC3)CC2)ccc1Nc1ncc2c(n1)N(C1CCCC1)c1ccccc1C(=O)N2C [Compound 25, 11-cyclopentyl-2-((2-methoxy-4-(4-(4-methylpiperazin-1-yl)piperidine-1-carbonyl)phenyl)amino)-5-methyl-5H-benzo[e]pyrimido[5,4-b][1,4]diazepin-6(11H)-one] | 100 | 100
3 | COc1cc(C(=O)N2CCC(N3CCN(C)CC3)CC2)ccc1Nc1ncc2c(n1)N1CCc3cccc(c31)C(=O)N2C [Compound 24] |  | 90
4 | COc1cc(C(=O)N2CCC(N3CCN(C)CC3)CC2)ccc1Nc1ncc2c(n1)N(C)c1ccccc1C(=O)N2C [15 (LRRK2-IN-1)] | 100 | 79
